Source: patent publication US20060205673A1, “2-Amino-3-hydroxy-4-tert-leucyl-amino-5-phenyl-pentanoic acid amide derivatives” (priority 2000, published 2006)

target: T1, purified human placenta 20S proteasome (Homo sapiens, UniProt P28074); experiment: Inhibition of the chymotrypsin-like activity of the 20S proteasome (Suc-LLVY-AMC hydrolysis); type: biochemical; conditions: Suc-LLVY-AMC substrate, 60 min preincubation at room temperature, Table 1
T1 construct: 1 μl purified human placenta 20S proteasome; tissue Diabetes Forschungsinstitut, Düsseldorf, Germany; host or cells: human placenta
Source text: It is based on the hydrolysis of the fluorogenic peptide Suc-LLVY-AMC (Succinyl-leucine-leucine-valine-tyrosine-7-amino-4-methyl-coumarin), which is cleaved exclusively at the Y-AMC bond by the 20S proteasome. Hydrolysis of this peptide is accompanied by an increase in fluorescence intensity [λex (excitation wavelength): 355 nm; λem (emission wavelength): 460 nm] due to release of the internally quenched […] fluorescence that accompanies diffusion apart of the hydrolysis product Suc-LLVY.
2 μl of a 1 mM solution of a test compound in DMSO (dimethylsulfoxide, 20 μM final concentration in the well) are preincubated for 60 min at room temperature in black 96-well microtiter plates together with a mixture of 1 μl purified human placenta 20S proteasome (Diabetes Forschungsinstitut, Düsseldorf, Germany; about 100 ng proteasome, depending on the proteasome preparation) and 47 μl buffer-Ca [5 mM CaCl2, 20 mM Tris/HCl (Tris-(hydroxymethyl)-amino-methane hydrochloride) pH 8.0]. 3 μl of a 2.67 mM solution of Suc-LLVY-AMC (Bachem, Switzerland) in DMSO (80 μM final concentration in the well) and 47 μl buffer-Ca are mixed and added. The resulting mixture is incubated for 3-24 h at 37° C. If desired, proteolysis of the substrate can be stopped by addition of 50 μl stop solution (100 mM monochloroacetic acid, 130 mM NaOH, 100 mM acetic acid, pH=4.3). The fluorescence is monitored with a FLUOROSKAN ASCENT™ microtiter plate reader.
To each measure series two control experiments have to be carried out:
1.) 0% value: 2 μl DMSO are used in the above described assay instead of 2 μl of a 1 mM solution of a test compound in DMSO and 48 μl buffer-Ca instead of a mixture of 47 μl buffer-Ca and 1 μl purified proteasome.
2.) 100% value: in the above described assay 2 μl DMSO are used instead of 2 μl of a 1 mM solution of the test compound in DMSO.
The IC50 value is defined as that concentration of a compound at which the remaining activity is 50%.

Row | IC50 [nM] | SMILES
1 | 11 | COc1ccc(CNC(=O)[C@@H](NC(=O)[C@H](NCc2cc(OC)c(OC)c(OC)c2)[C@H](O)[C@H](Cc2ccccc2)NC(=O)[C@@H](NC(=O)Cc2cccc3ccccc23)C(C)(C)C)C(C)C)c(O)c1 [Example 12, (2R,3R,4S)-4-[(S)-3,3-Dimethyl-2-(2-naphthalen-1-yl-acetylamino)-butyrylamino]-3-hydroxy-5-phenyl-2-(3,4,5-trimethoxy-benzylamino)-pentanoic acid [(S)-1-(2-hydroxy-4-methoxy-benzylcarbamoyl)-2-methyl-propyl]-amide]
2 | 1500 | COc1cccc(CN[C@@H](C(=O)N[C@H](C(=O)NCc2ccc(OC)cc2O)C(C)C)[C@H](O)[C@H](Cc2ccccc2)NC(=O)[C@@H](NC(=O)OCc2ccccc2)C(C)(C)C)c1 [Example 4, {(S)-1-[(1S,2R,3R)-1-Benzyl-2-hydroxy-3-[(S)-1-(2-hydroxy-4-methoxy-benzylcarbamoyl)-2-methyl-propylcarbamoyl]-3-(3-methoxy-benzylamino)-propylcarbamoyl]-2,2-dimethyl-propyl}-carbamic acid benzyl ester]
3 | 100 | COc1ccc(CNC(=O)[C@@H](NC(=O)[C@H](NCc2ccc(OC)c(OC)c2OC)[C@H](O)[C@H](Cc2ccccc2)NC(=O)[C@@H](NC(=O)OCc2ccccc2)C(C)(C)C)C(C)C)c(O)c1 [Example 7, {(S)-1-[(1S,2R,3R)-1-Benzyl-2-hydroxy-3-[(S)-1-(2-hydroxy-4-methoxy-benzylcarbamoyl)-2-methyl-propylcarbamoyl]-3-(2,3,4-trimethoxy-benzylamino) -propylcarbamoyl]-2,2-dimethyl-propyl}-carbamic acid benzyl ester]
